{"source": "patent US8394986B2", "about": "“Phenoxiacetic acid derivatives” (AstraZeneca AB, priority 2003, dated 2013)", "note": "Where a name gives a salt, the structure may show the parent alone."}
{"molecular_target": "T1, rhCRTh2 (Homo sapiens, UniProt Q9Y5Y4)", "T1 construct": "expressed in transfected cells; membranes prepared", "T1 sequence (Q9Y5Y4 1-395)": "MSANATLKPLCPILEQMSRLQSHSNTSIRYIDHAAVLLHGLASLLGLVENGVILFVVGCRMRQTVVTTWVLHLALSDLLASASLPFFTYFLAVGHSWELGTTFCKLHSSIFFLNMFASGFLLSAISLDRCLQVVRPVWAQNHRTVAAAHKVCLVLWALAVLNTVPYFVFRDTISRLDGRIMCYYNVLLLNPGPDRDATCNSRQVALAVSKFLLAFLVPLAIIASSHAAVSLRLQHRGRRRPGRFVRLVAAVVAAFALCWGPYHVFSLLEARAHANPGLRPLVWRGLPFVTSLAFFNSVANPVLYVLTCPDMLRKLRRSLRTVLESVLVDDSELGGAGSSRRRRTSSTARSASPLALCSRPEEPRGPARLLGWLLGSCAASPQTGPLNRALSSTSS", "test": "Ligand binding assay ([3H]PGD2 SPA, HEK cell membranes)", "details": "[3H]PGD2 displacement, membranes of HEK cells expressing rhCRTh2/Ga16, SPA beads, 2 hours room temperature", "description": "[^3H]PGD2 was purchased from Perkin Elmer Life Sciences with a specific activity of 100-210 Ci/mmol All other chemicals were of analytical grade.\nHEK cells expressing rhCRTh2/Ga16 were routinely maintained in DMEM containing 10% Foetal Bovine Serum (HyClone), 1 mg/ml geneticin, 2 mM L-glutamine and 1% non-essential amino acids. For the preparation of membranes, the adherent transfected HEKcells were grown to confluence in two layer tissue culture factories (Fisher, catalogue number TKT-170-070E). Maximal levels of receptor expression were induced by addition of […] sodium butyrate for the last 18 hours of culture. The adherent cells were washed once with phosphate buffered saline (PBS, 50 ml per cell factory) and detached by the addition of 50 ml per cell factory of ice-cold membrane homogenisation buffer [20 mM HEPES (pH 7.4), 0.1 mM dithiothreitol, 1 mM EDTA, 0.1 mM phenyl methyl sulphonyl fluoride and 100 μg/ml bacitracin]. […] The final pellet was re-suspended in 4 ml of membrane homogenisation buffer per cell factory used and the protein content determined Membranes were stored at −80° C. in suitable aliquots.\nAll assays were performed in Corning clear bottomed, white 96-well NBS plates (Fisher). […] (The optimum coating concentrations were determined for each batch of membranes) The beads were pelleted by centrifugation (800×g for 7 minutes at 4° C.), washed once with assay buffer (50 mM HEPES pH 7.4 containing 5 mM magnesium chloride) and finally re-suspended in assay buffer at a bead concentration of 10 mg/ml.\nEach assay contained 20 μl of 6.25 nM [^3H]PGD2, 20 μl membrane saturated SPA beads both in assay buffer and 10 μl of compound solution or 13,14-dihydro-15-keto prostaglandin D2 (DK-PGD2, for determination of non-specific binding, Cayman chemical company). […] The assay plate was incubated at room temperature for 2 hours and counted on a Wallac Microbeta liquid scintillation counter (1 minute per well).", "units": {"IC50": "µM"}}
{"smiles": "CCS(=O)(=O)c1ccc(Oc2cc(Cl)ccc2OCC(=O)O)cc1", "note": "[Example 5, [4-Chloro-2-[4-(ethylsulfonyl)phenoxy]phenoxy]acetic acid, sodium salt]", "IC50": 0.01}
{"smiles": "CCS(=O)(=O)c1ccc(Cc2cc(C(F)(F)F)ccc2OCC(=O)O)cc1", "note": "[Example 4, [2-[4-(Ethylsulfonyl)benzyl]-4-(trifluoromethyl)phenoxy]acetic acid]", "IC50": 0.01}
{"smiles": "CCS(=O)(=O)c1ccc(Oc2cc(F)ccc2OCC(=O)O)c(Cl)c1", "note": "[Example 43, {2-[2-Chloro-4-(ethylsulfonyl)phenoxy]-4-fluorophenoxy}acetic acid]", "IC50": 0.001}
